We go through 14 molecules from US11524966B1 (Valo Early Discovery, Inc., priority 2017, dated 2022).

For orientation: IC50 means the concentration at which inhibition is half-maximal.

The target of this test is T1, USP25 (USP25-His6, Boston Biochem E-546) (Homo sapiens, UniProt Q9UHP3).
T1 construct: His6; purchased Boston Biochem E-546
T1 sequence (Q9UHP3 1-1055): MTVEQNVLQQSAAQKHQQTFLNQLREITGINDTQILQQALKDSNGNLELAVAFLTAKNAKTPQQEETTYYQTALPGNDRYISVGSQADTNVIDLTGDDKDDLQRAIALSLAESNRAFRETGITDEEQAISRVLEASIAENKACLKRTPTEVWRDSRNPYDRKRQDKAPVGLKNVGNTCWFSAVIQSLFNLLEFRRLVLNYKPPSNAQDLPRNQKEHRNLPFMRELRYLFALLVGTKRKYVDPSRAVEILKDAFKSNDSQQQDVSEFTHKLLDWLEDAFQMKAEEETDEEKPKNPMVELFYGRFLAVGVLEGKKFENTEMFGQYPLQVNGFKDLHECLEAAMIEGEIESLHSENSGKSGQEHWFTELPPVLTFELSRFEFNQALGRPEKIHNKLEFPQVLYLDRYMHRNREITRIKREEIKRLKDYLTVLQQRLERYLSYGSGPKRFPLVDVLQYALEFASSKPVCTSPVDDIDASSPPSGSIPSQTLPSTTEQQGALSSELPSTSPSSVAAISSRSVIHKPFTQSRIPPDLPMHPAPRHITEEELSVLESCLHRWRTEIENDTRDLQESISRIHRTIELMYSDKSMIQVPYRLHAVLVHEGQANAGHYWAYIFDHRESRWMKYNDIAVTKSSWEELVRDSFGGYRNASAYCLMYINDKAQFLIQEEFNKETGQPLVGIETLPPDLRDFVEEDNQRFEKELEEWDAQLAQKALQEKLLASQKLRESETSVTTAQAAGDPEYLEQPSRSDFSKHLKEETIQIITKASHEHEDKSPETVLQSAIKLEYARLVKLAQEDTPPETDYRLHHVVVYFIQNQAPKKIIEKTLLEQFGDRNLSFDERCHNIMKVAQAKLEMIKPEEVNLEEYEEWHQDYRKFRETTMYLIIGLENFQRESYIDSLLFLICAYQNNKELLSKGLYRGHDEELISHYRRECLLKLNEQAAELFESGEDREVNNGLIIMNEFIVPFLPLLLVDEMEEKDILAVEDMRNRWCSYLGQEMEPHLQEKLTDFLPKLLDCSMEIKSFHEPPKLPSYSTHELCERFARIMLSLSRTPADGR
Nature of the test: Ubiquitin-Rhodamine 110 Assay for USP25 Activity, Example A-2. It is filed as biochemical. The settings on record: Ubiquitin-Rhodamine 110 assay, Example A-2; read-out: USP25 A-2 IC50 range. In outline:
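75 pM USP25-His6 was preincubated 30 min with compound (10-point 3-fold series, 25 μM–1.3 nM) in pH 8.0 Tris buffer with BME, BGG and Triton X-100. Then 25 nM Ub-Rh110 (<<Km) was added for 45 min at room temperature, stopped with citric acid, fluorescence read at 485/535 nm, IC50 by 4-parameter fit.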
Consider `COC[C@@H]1C[C@H](N)CN1c1ccc2c(c1)OC[C@H](NC(=O)c1sc3nc(C)ccc3c1N)C2` [Example 263, 3-amino-N-[(3R)-7-[(2S,4S)-4-amino-2-(methoxymethyl)pyrrolidin-1-yl]-3,4-dihydro-2H-1-benzopyran-3-yl]-6-methylthieno[2,3-b]pyridine-2-carboxamide], for which the IC50 lay in the range of 50 to 200 nM. Turning to `COC[C@H]1CN(c2ccc3c(n2)CC[C@H](NC(=O)c2sc4nc(C)ccc4c2N)C3)C[C@@H]1N` [Example 327, 3-amino-N-[(6S)-2-[(3R,4S)-3-amino-4-(methoxymethyl)pyrrolidin-1-yl]-5,6,7,8-tetrahydroquinolin-6-yl]-6-methylthieno[2,3-b]pyridine-2-carboxamide], the IC50 lay in the range of 200 to 2000 nM.

In the case of `CO[C@]12CNC[C@H]1CN(c1ccc3c(c1)OC[C@H](NC(=O)c1sc4nc(C)ccc4c1N)C3)C2` [Example 291, N-[(3R)-7-[(3aS,6aS)-3a-methoxy-octahydropyrrolo[3,4-c]pyrrol-2-yl]-3,4-dihydro-2H-1-benzopyran-3-yl]-3-amino-6-methylthieno[2,3-b]pyridine-2-carboxamide], the IC50 was in the range of 200 to 2000 nM. In the case of `CO[C@@H]1[C@@H](N)CN(c2ccc3c(c2)OC[C@H](NC(=O)c2sc4nc(C)ccc4c2N)C3)[C@H]1C` [Example 283, 3-amino-N-[(3R)-7-[(2S,3R,4S)-4-amino-3-methoxy-2-methylpyrrolidin-1-yl]-3,4-dihydro-2H-1-benzopyran-3-yl]-6-methylthieno[2,3-b]pyridine-2-carboxamide], the IC50 was 50 to 200 nM. As to `COC[C@H]1C[C@@H](N)CN1c1ccc2c(c1)OC[C@H](NC(=O)c1sc3nc(C)ccc3c1N)C2` [Example 262, 3-amino-N-[(3R)-7-[(2R,4R)-4-amino-2-(methoxymethyl)pyrrolidin-1-yl]-3,4-dihydro-2H-1-benzopyran-3-yl]-6-methylthieno[2,3-b]pyridine-2-carboxamide], the IC50 lay within 200 to 2000 nM. Next, `N#Cc1c(N2CC3CCC(C2)N3)cc2c(c1F)C[C@@H](NC(=O)c1cnc3c(c1)[C@H]1C[C@H]1CN3)CO2` [Example 265, (6aR,7aS)-N-[(3R)-6-cyano-7-{3,8-diazabicyclo[3.2.1]octan-3-yl}-5-fluoro-3,4-dihydro-2H-1-benzopyran-3-yl]-5H,6H,6aH,7H,7aH-cyclopropa[c]1,8-naphthyridine-2-carboxamide]: 200 to 2000 nM; `CO[C@]1(C)CN(c2ccc3c(c2)OC[C@H](NC(=O)c2sc4nc(C)ccc4c2N)C3)C[C@H]1N` [Example 282, 3-amino-N-[(3R)-7-[(3R,4R)-4-amino-3-methoxy-3-methylpyrrolidin-1-yl]-3,4-dihydro-2H-1-benzopyran-3-yl]-6-methylthieno[2,3-b]pyridine-2-carboxamide]: 200 to 2000 nM. To `COC[C@H]1CN(c2nc3c(cc2F)C[C@H](NC(=O)c2sc4nc(C)ccc4c2N)CC3)C[C@H]1N` (single isomer, unassigned) [Example 303] belongs > 2000 nM. In the case of `Cc1ccc2c(N)c(C(=O)N[C@H]3CCc4nc(N5C[C@@H]6NCCC(F)(F)[C@@H]6C5)ccc4C3)sc2n1` [Example 330, N-[(6S)-2-[(4aR,7aR)-4,4-difluoro-octahydro-1H-pyrrolo[3,4-b]pyridin-6-yl]-5,6,7,8-tetrahydroquinolin-6-yl]-3-amino-6-methylthieno[2,3-b]pyridine-2-carboxamide], the IC50 is > 2000 nM. To `COC[C@@H]1CN(c2nc3c(cc2F)C[C@H](NC(=O)c2sc4nc(C)ccc4c2N)CC3)C[C@@H]1N` (single isomer, unassigned) [Example 302] belongs 200 to 2000 nM. With `CO[C@@]1(C)CN(c2ccc3c(n2)OC[C@H](NC(=O)c2sc4nc(C)ccc4c2N)C3)C[C@@H]1N` [Example 325, 3-amino-N-[(3R)-7-[(3S,4S)-4-amino-3-methoxy-3-methylpyrrolidin-1-yl]-2H,3H,4H-pyrano[2,3-b]pyridin-3-yl]-6-methylthieno[2,3-b]pyridine-2-carboxamide], the IC50 was > 2000 nM. Next, `COC[C@H]1CN(c2nc3c(cc2F)C[C@@H](NC(=O)c2sc4nc(C)ccc4c2N)CC3)C[C@H]1N` [Example 301, 3-amino-N-[(6S)-2-[(3S,4S)-3-amino-4-(methoxymethyl)pyrrolidin-1-yl]-3-fluoro-5,6,7,8-tetrahydroquinolin-6-yl]-6-methylthieno[2,3-b]pyridine-2-carboxamide]: > 2000 nM; `CO[C@H]1CN(c2ccc3c(n2)OC[C@H](NC(=O)c2sc4nc(C)cc(C)c4c2N)C3)C[C@@H]1N` [Example 286, 3-amino-N-[(3R)-7-[(3S,4S)-3-amino-4-methoxypyrrolidin-1-yl]-2H,3H,4H-pyrano[2,3-b]pyridin-3-yl]-4,6-dimethylthieno[2,3-b]pyridine-2-carboxamide]: > 2000 nM. On to `COC[C@]1(C)CN(c2ccc3c(n2)CC[C@H](NC(=O)c2sc4nc(C)ccc4c2N)C3)C[C@@H]1N` [Example 342, 3-amino-N-[(6S)-2-[(3R,4R)-4-amino-3-(methoxymethyl)-3-methylpyrrolidin-1-yl]-5,6,7,8-tetrahydroquinolin-6-yl]-6-methylthieno[2,3-b]pyridine-2-carboxamide], for which the IC50 fell in the range of 200 to 2000 nM.
